We go through 21 molecules from patent US11970498B2, “CDK2 inhibitors” (BLUEPRINT MEDICINES CORPORATION, priority 2021, dated 2024).

One assay deals with T1, CDK1/Cyclin B1, GST-tag (Homo sapiens, UniProt P06493).
T1 construct: GST
Kind of assay: CDK1/Cyclin B1 biochemical phosphorylation assay (Caliper mobility shift). Particulars: apparent IC50; 1.0 mM ATP or ATP Km; 1.5 nM enzyme; 25° C. A digest of the protocol: (§1)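 7.5 µM 5-FAM-QSPKKG-CONH2 peptide phosphorylated by CDK2/Cyclin E (1.25 nM) or GST-CDK1/Cyclin B1 (1.5 nM) at 1.0 mM ATP or ATP Km, in HEPES pH 7.5, MgCl2, Brij-35, DTT, 1% DMSO, 25 °C to 10–20% conversion. EDTA stop; Caliper mobility-shift readout; apparent IC50 from percent activity vs log concentration.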

For another assay, the target named is CDK2/Cyclin E (Homo sapiens, UniProt P24941). Briefly: CDK2/Cyclin E biochemical phosphorylation assay (Caliper mobility shift). The note with it: apparent IC50; 1.0 mM ATP or ATP Km; 1.25 nM enzyme; 25° C.; read-out: CDK2/cyclin E1 IC50. The gist of the method:
as §1

T1 sequence (P06493 whole entry): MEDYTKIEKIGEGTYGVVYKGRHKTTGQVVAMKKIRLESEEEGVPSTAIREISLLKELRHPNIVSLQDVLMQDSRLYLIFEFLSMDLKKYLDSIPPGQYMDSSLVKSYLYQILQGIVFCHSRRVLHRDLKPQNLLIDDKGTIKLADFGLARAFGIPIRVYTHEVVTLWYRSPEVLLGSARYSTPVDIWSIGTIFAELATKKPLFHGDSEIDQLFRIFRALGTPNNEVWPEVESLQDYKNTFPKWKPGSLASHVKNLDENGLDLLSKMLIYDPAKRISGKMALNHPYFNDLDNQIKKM
T1 sequence (P14635 whole entry partner): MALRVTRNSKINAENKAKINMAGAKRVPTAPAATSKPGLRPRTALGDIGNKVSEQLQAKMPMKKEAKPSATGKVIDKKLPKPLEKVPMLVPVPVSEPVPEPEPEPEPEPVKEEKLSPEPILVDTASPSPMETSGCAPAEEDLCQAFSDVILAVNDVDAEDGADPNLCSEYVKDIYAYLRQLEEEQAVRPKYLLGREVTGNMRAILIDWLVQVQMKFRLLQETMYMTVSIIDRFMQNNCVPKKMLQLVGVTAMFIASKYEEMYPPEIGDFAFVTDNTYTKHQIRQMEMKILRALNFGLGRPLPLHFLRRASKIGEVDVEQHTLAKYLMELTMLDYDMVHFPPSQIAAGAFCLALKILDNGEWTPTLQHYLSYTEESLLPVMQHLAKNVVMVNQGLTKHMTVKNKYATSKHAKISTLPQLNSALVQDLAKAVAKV

With `COc1cc(Nc2cnc3cnn([C@@H](C(F)F)C4CCOCC4)c3n2)n[nH]1` (single isomer, unassigned) [Example 192, (R)-1-(2,2-difluoro-1-(tetrahydro-2H-pyran-4-yl)ethyl)-N-(5-methoxy-1H-pyrazol-3-yl)-1H-pyrazolo[3,4-b]pyrazin-6-amine or (S)-1-(2,2-difluoro-1-(tetrahydro-2H-pyran-4-yl)ethyl)-N-(5-methoxy-1H-pyrazol-3-yl)-1H-pyrazolo[3,4-b]pyrazin-6-amine], the IC50 on CDK1/Cyclin B1, GST-tag is at least 500 nM; at CDK2/Cyclin E it was above 100 nM.

Turning to `C[C@]1(Cn2ncc3ncc(Nc4cc(OC(F)F)[nH]n4)nc32)CCOC1` (single isomer, unassigned) [Example 166, (S)-N-(5-(difluoromethoxy)-1H-pyrazol-3-yl)-1-((3-methyltetrahydrofuran-3-yl)methyl)-1H-pyrazolo[3,4-b]pyrazin-6-amine or (R)-N-(5-(difluoromethoxy)-1H-pyrazol-3-yl)-1-((3-methyltetrahydrofuran-3-yl)methyl)-1H-pyrazolo[3,4-b]pyrazin-6-amine], the IC50 on CDK1/Cyclin B1, GST-tag is 100 to 500 nM; at CDK2/Cyclin E, at most 10 nM.

As to `C[C@@H](c1ccc(F)cn1)n1ncc2ncc(Nc3cc(OC(F)F)[nH]n3)nc21` [Example 48, (S)-N-(5-(difluoromethoxy)-1H-pyrazol-3-yl)-1-(1-(5-fluoropyridin-2-yl)ethyl)-1H-pyrazolo[3,4-b]pyrazin-6-amine], the IC50 at CDK1/Cyclin B1, GST-tag was at least 500 nM; on CDK2/Cyclin E it was at most 10 nM.

As to `FC(F)Oc1cc(Nc2cnc3cnn(C[C@@]4(F)CCOC4)c3n2)n[nH]1` (single isomer, unassigned) [Example 167, (S)-N-(5-(difluoromethoxy)-1H-pyrazol-3-yl)-1-((3-fluorotetrahydrofuran-3-yl)methyl)-1H-pyrazolo[3,4-b]pyrazin-6-amine or (R)-N-(5-(difluoromethoxy)-1H-pyrazol-3-yl)-1-((3-fluorotetrahydrofuran-3-yl)methyl)-1H-pyrazolo[3,4-b]pyrazin-6-amine], the IC50 on CDK1/Cyclin B1, GST-tag was at least 500 nM; on CDK2/Cyclin E, 20 to 30 nM.

Regarding `COc1cc(Nc2cnc3cnn(CC4C5COCC54)c3n2)n[nH]1` (stereo not drawn) [Example 138, 1-((3-oxabicyclo[3.1.0]hexan-6-yl)methyl)-N-(5-methoxy-1H-pyrazol-3-yl)-1H-pyrazolo[3,4-b]pyrazin-6-amine], the IC50 on CDK1/Cyclin B1, GST-tag was at least 500 nM; at CDK2/Cyclin E, 20 to 30 nM.

As for `C[C@@H](c1cccc(F)c1)n1ncc2ncc(Nc3cc(OC(F)F)[nH]n3)nc21` [Example 43, (S)-N-(5-(difluoromethoxy)-1H-pyrazol-3-yl)-1-(1-(3-fluorophenyl)ethyl)-1H-pyrazolo[3,4-b]pyrazin-6-amine], the IC50 at CDK1/Cyclin B1, GST-tag is at least 500 nM; at CDK2/Cyclin E it was at most 10 nM.

As for `FC(F)Oc1cc(Nc2cnc3cnn([C@H](C4CCOCC4)C4CC4)c3n2)n[nH]1` (single isomer, unassigned) [Example 158, (R)-1-(cyclopropyl(tetrahydro-2H-pyran-4-yl)methyl)-N-(5-(difluoromethoxy)-1H-pyrazol-3-yl)-1H-pyrazolo[3,4-b]pyrazin-6-amine or (S)-1-(cyclopropyl(tetrahydro-2H-pyran-4-yl)methyl)-N-(5-(difluoromethoxy)-1H-pyrazol-3-yl)-1H-pyrazolo[3,4-b]pyrazin-6-amine], the IC50 was at least 500 nM on CDK1/Cyclin B1, GST-tag and 30 to 100 nM on CDK2/Cyclin E.

In the case of `C[C@@H](c1ccccc1)n1ncc2ncc(Nc3cc(OC(F)F)[nH]n3)nc21` [Example 93, (S)-N-(5-(difluoromethoxy)-1H-pyrazol-3-yl)-1-(1-phenylethyl)-1H-pyrazolo[3,4-b]pyrazin-6-amine], the IC50 is at least 500 nM at CDK1/Cyclin B1, GST-tag and at most 10 nM on CDK2/Cyclin E.

For the molecule `FC(F)Oc1cc(Nc2cnc3cnn(C[C@@H]4CC4(F)F)c3n2)n[nH]1` (single isomer, unassigned) [Example 163, (S)-1-((2,2-difluorocyclopropyl)methyl)-N-(5-(difluoromethoxy)-1H-pyrazol-3-yl)-1H-pyrazolo[3,4-b]pyrazin-6-amine or (R)-1-((2,2-difluorocyclopropyl)methyl)-N-(5-(difluoromethoxy)-1H-pyrazol-3-yl)-1H-pyrazolo[3,4-b]pyrazin-6-amine], the IC50 on CDK1/Cyclin B1, GST-tag is at least 500 nM; at CDK2/Cyclin E it was at most 10 nM.

Regarding `FC(F)Oc1cc(Nc2cnc3cnn(C[C@@H]4CC4(F)F)c3n2)n[nH]1` (single isomer, unassigned) [Example 164, (R)-1-((2,2-difluorocyclopropyl)methyl)-N-(5-(difluoromethoxy)-1H-pyrazol-3-yl)-1H-pyrazolo[3,4-b]pyrazin-6-amine or (S)-1-((2,2-difluorocyclopropyl)methyl)-N-(5-(difluoromethoxy)-1H-pyrazol-3-yl)-1H-pyrazolo[3,4-b]pyrazin-6-amine], the IC50 at CDK1/Cyclin B1, GST-tag was at least 500 nM; on CDK2/Cyclin E, 10 to 20 nM.

In the case of `C[C@@H](C1CCOCC1)n1ncc2ncc(Nc3cc(OC(F)F)[nH]n3)nc21` [Example 77, (S)-N-(5-(difluoromethoxy)-1H-pyrazol-3-yl)-1-(1-(tetrahydro-2H-pyran-4-yl)ethyl)-1H-pyrazolo[3,4-b]pyrazin-6-amine], the IC50 on CDK1/Cyclin B1, GST-tag was 100 to 500 nM; at CDK2/Cyclin E it was at most 10 nM.

As for `FC(F)Oc1cc(Nc2cnc3cnn([C@@H](C(F)F)C4CCOCC4)c3n2)n[nH]1` (single isomer, unassigned) [Example 29, (R)-1-(2,2-difluoro-1-(tetrahydro-2H-pyran-4-yl)ethyl)-N-(5-(difluoromethoxy)-1H-pyrazol-3-yl)-1H-pyrazolo[3,4-b]pyrazin-6-amine or (S)-1-(2,2-difluoro-1-(tetrahydro-2H-pyran-4-yl)ethyl)-N-(5-(difluoromethoxy)-1H-pyrazol-3-yl)-1H-pyrazolo[3,4-b]pyrazin-6-amine], the IC50 on CDK1/Cyclin B1, GST-tag was at least 500 nM; on CDK2/Cyclin E it was at most 10 nM.

For the molecule `FC(F)Oc1cc(Nc2cnc3cnn(Cc4nccs4)c3n2)n[nH]1` [Example 54, N-(5-(difluoromethoxy)-1H-pyrazol-3-yl)-1-(thiazol-2-ylmethyl)-1H-pyrazolo[3,4-b]pyrazin-6-amine], the IC50 on CDK1/Cyclin B1, GST-tag was at least 500 nM; at CDK2/Cyclin E, 30 to 100 nM.

As for `FC(F)Oc1cc(Nc2cnc3cnn([C@H](c4ccccn4)C4CC4)c3n2)n[nH]1` [Example 102, (S)-1-(cyclopropyl(pyridin-2-yl)methyl)-N-(5-(difluoromethoxy)-1H-pyrazol-3-yl)-1H-pyrazolo[3,4-b]pyrazin-6-amine], the IC50 on CDK1/Cyclin B1, GST-tag was at least 500 nM; at CDK2/Cyclin E, 20 to 30 nM.

Take `C[C@@H]([C@@H]1CCOC1)n1ncc2ncc(Nc3cc(OC(F)F)[nH]n3)nc21` (single isomer, unassigned) [Example 9]: the IC50 on CDK1/Cyclin B1, GST-tag is at least 500 nM; at CDK2/Cyclin E, at most 10 nM.

Regarding `FC(F)Oc1cc(Nc2cnc3cnn(C[C@H]4C[C@@H]4F)c3n2)n[nH]1` (single isomer, unassigned) [Example 160, N-(5-(difluoromethoxy)-1H-pyrazol-3-yl)-1-(((1S,2R)-2-fluorocyclopropyl)methyl)-1H-pyrazolo[3,4-b]pyrazin-6-amine or N-(5-(difluoromethoxy)-1H-pyrazol-3-yl)-1-(((1R,2S)-2-fluorocyclopropyl)methyl)-1H-pyrazolo[3,4-b]pyrazin-6-amine], the IC50 at CDK1/Cyclin B1, GST-tag was at least 500 nM; at CDK2/Cyclin E, 20 to 30 nM.

Consider `C[C@@H]([C@H]1CCCOC1)n1ncc2ncc(Nc3cc(OC(F)F)[nH]n3)nc21` (single isomer, unassigned) [Example 217], for which the IC50 is at least 500 nM on CDK1/Cyclin B1, GST-tag and 30 to 100 nM at CDK2/Cyclin E.

For the molecule `C[C@@H](c1ccc(F)cc1)n1ncc2ncc(Nc3cc(OC(F)F)[nH]n3)nc21` [Example 47, (S)-N-(5-(difluoromethoxy)-1H-pyrazol-3-yl)-1-(1-(4-fluorophenyl)ethyl)-1H-pyrazolo[3,4-b]pyrazin-6-amine], the IC50 on CDK1/Cyclin B1, GST-tag is at least 500 nM; on CDK2/Cyclin E it was at most 10 nM.

Regarding `COc1cc(Nc2cnc3cnn(CC4(C)COC4)c3n2)n[nH]1` [Example 133, N-(5-methoxy-1H-pyrazol-3-yl)-1-((3-methyloxetan-3-yl)methyl)-1H-pyrazolo[3,4-b]pyrazin-6-amine], the IC50 is at least 500 nM on CDK1/Cyclin B1, GST-tag and 20 to 30 nM at CDK2/Cyclin E.

For `C[C@]1(Cn2ncc3ncc(Nc4cc(OC(F)F)[nH]n4)nc32)CCOC1` (single isomer, unassigned) [Example 165, (R)-N-(5-(difluoromethoxy)-1H-pyrazol-3-yl)-1-((3-methyltetrahydrofuran-3-yl)methyl)-1H-pyrazolo[3,4-b]pyrazin-6-amine or (S)-N-(5-(difluoromethoxy)-1H-pyrazol-3-yl)-1-((3-methyltetrahydrofuran-3-yl)methyl)-1H-pyrazolo[3,4-b]pyrazin-6-amine], the IC50 on CDK1/Cyclin B1, GST-tag is at least 500 nM; on CDK2/Cyclin E, 30 to 100 nM.

As for `C[C@@H](c1cncc(F)c1)n1ncc2ncc(Nc3cc(OC(F)F)[nH]n3)nc21` (single isomer, unassigned) [Example 154, (R)-N-(5-(difluoromethoxy)-1H-pyrazol-3-yl)-1-(1-(5-fluoropyridin-3-yl)ethyl)-1H-pyrazolo[3,4-b]pyrazin-6-amine or (S)-N-(5-(difluoromethoxy)-1H-pyrazol-3-yl)-1-(1-(5-fluoropyridin-3-yl)ethyl)-1H-pyrazolo[3,4-b]pyrazin-6-amine], the IC50 at CDK1/Cyclin B1, GST-tag is at least 500 nM; at CDK2/Cyclin E it was 20 to 30 nM.
